Laboratory results as given in paper PMC5423902, “CXCL9-Derived Peptides Differentially Inhibit Neutrophil Migration In Vivo through Interference with Glycosaminoglycan Interactions” (Frontiers in Immunology, 2017).

Columns and labels:
[1] = test system: MSU crystal-induced neutrophil migration; assay: MSU crystal-induced gout in mice (neutrophil migration to knee); format: in vivo, mouse (C57BL/6); conditions: 66 µg peptide i.v.; MSU crystals 100 µg, C57BL/6, 3 h, n ≥ 5; Figure 5
Experimental: Monosodium urate crystals were prepared as described previously ([42], [49]) and were injected (100 µg in 10 µl) in the tibiofemoral knee joint of C57Bl/6 mice. A group of mice received CXCL9 peptide or vehicle intravenously and the cells present in the tibiofemoral articulation were harvested 3 h after MSU crystal administration. The total and differential leukocyte counts were determined.
Figure 5 CXCL9(74-93) inhibits CXCL8-induced but not monosodium urate (MSU) crystal-induced neutrophil migration to the knee cavity. CXCL8(1-77) (1 µg) or MSU crystals (100 µg) were injected into the tibiofemoral articulation of C57BL/6 mice (n ≥ 5). Simultaneously, 66 µg of CXCL9(74-93) was injected intravenously and 3 h post injection the number of total cells (A) and neutrophils (B) were evaluated by washing the cavity and differentially counting the leukocyte subtypes on May-Grunwald-Giemsa-stained cytospins. The total numbers of leukocytes and neutrophils are shown for every individual mouse, and the horizontal lines denote the median number of cells. To detect statistically significant differences, the Mann–Whitney U-test was carried out (*p < 0.05; **p < 0.01; ***p < 0.005).

[2] = test system: neutrophil adhesion to the endothelium; assay: CXCL8-induced neutrophil adhesion in the murine cremaster muscle model; format: in vivo, mouse (C57Bl/6J); conditions: 108 µg peptide i.v., Figure 8
Experimental: Mice were anesthetized by intraperitoneal injection of 200 mg/kg ketamine (Bayer Inc. Animal Health) and 10 mg/kg xylazine (Bimeda-MTC). After anesthesia, the right jugular vein was cannulated for maintenance of anesthesia and to permit the delivery of the fluorescence-labeled antibodies. Mice were injected intravenously (via jugular vein) with either saline or CXCL9(74-103) 5 min prior to an intrascrotal injection of 1 or 3 µg CXCL8. The animals were placed on a water-heated operating table to maintain body temperature at ~37°C. The depth of anesthesia was controlled by regularly monitoring peripheral reflexes. The cremaster muscle was prepared as previously described ([50]). […] Single unbranched cremasteric venules with a diameter of ~25–40 μm were selected and their blood flow was recorded during a 5 min period. […] A 512 × 512 pixel back-thinned EMCCD camera (C9100-13, Hamamatsu, Bridgewater, NJ, USA) was used for fluorescence detection. […] Images captured using the spinning disk were processed and analyzed in Volocity 4.20. Periods of 5 min/field of view were recorded at 45, 60, and 90 min after CXCL8 administration. A neutrophil was considered to be adherent if it remained stationary for at least 30 s, and total neutrophil adhesion was quantified as the number of adherent cells within a 100-µm length of venule. […]

[3] = test system: MSU crystal-induced neutrophil migration; conditions: murine model; cited from earlier work
Source text: Because of their essential role for the migration of leukocytes, chemokines and their GPCRs can serve as potential targets for the development of new anti-inflammatory drugs ([24]–[26]). Several neutralizing ligands or antibodies, modified chemokines or small molecules have been developed as antagonists ([27]–[30]). However, only two chemokine receptor antagonists are currently used as therapeutics, namely, Maraviroc (a CCR5 antagonist) and AMD3100 (a CXCR4 antagonist) ([31], [32]). Remarkably, these antagonists are not used as anti-inflammatory drugs, but, respectively, as an inhibitor of hum ...

[4] = previously reported; read-out: KD for LMWH; cited from earlier work
Experimental: To obtain more insight in the contribution of the unique COOH-terminal region of CXCL9 and in the specificity of CXCL9-derived peptides for different GAGs, the affinity of CXCL9(74–93) for LMWH, HS, and CS was determined by IFT. […] A biphasic binding isotherm was obtained when titrating CXCL9(74-93) with HS, indicating more than one binding site for the peptide on this GAG. Fitting only the initial high-affinity phase, a KD ...

Row | Substance | inhibition of MSU crystal-induced neutrophil migration to the joint [1] | adherence of neutrophils to the endothelium ([2]; 1 µg CXCL8 intrascrotal) | adherence of neutrophils to the endothelium ([2]; 3 µg CXCL8 intrascrotal) | inhibition of neutrophil extravasation in MSU crystal-induced gout [3] | Kd [4]
1 | 74KKKQKNGKKHQKKKVLKVRK93 [CXCL9(74-93), COOH-terminal peptide of CXCL9 lacking the 10 COOH-terminal amino acids of CXCL9(74-103)] | could not inhibit MSU crystal-induced neutrophil migration to the joint |  |  |  | 
2 | 74KKKQKNGKKHQKKKVLKVRKSQRSRQKKTT103 [CXCL9(74-103), COOH-terminal peptide of CXCL9] |  | reduced the adherence of neutrophils to the endothelium significantly | reduced the adherence of neutrophils to the endothelium significantly | able to inhibit neutrophil extravasation | 61 nM
